In experiment [1] the target is T1, recombinant Aurora A (Homo sapiens, UniProt O14965).
T1 construct: purchased Upstate, Lake Placid, N.Y
T1 sequence (O14965 1-403): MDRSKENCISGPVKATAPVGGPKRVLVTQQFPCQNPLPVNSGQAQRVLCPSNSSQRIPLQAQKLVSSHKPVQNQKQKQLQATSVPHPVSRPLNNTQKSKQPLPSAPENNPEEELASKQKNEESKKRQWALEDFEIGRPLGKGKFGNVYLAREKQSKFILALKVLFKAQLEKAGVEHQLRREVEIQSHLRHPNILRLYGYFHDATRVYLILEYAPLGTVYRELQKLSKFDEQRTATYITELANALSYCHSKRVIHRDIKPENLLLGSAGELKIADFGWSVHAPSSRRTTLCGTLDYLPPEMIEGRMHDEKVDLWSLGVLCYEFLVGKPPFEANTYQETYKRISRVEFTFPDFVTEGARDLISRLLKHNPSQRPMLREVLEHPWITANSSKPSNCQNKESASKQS
Nature of the experiment: PanVera Z'-Lyte Aurora kinase assay. Format: biochemical. To be noted: Z'-Lyte Ser/Thr 1 peptide 2 μM, ATP 10 μM, 1 h. Here is the method: Compounds 7-14 above were tested for their potency against recombinant Aurora A (Upstate, Lake Placid, N.Y.) using the PanVera Z'-Lyte kinase assay kit—Ser/Thr 1 peptide (Invitrogen, Carlsbad, Calif.). Assays were carried out in kinase assay buffer (50 mM HEPES, pH 7.5, 10 mM MgCl2, 5 mM EGTA, 0.05% Brij-35, 2 mM DTT). Test compounds were initially dissolved in DMSO at 100× the highest tested concentration, then serially diluted to 4× test concentrations in kinase assay buffer. Next, Aurora A (final concentration 200-500 ng/mL), Z′-Lyte Ser/Thr 1 peptide (final concentration 2 μM) and ATP (final concentration 10 μM) were added according to the manufacturer's instructions. Assays were carried out in half-area 96-well white polystyrene assay plates (Corning, Corning, N.Y.) in a final volume of 20 μL. The reaction was allowed to proceed for 1 h at room temperature in the dark, at which point the development reagent and stop reagent were added according to the manufacturer's instructions. Coumarin (Ex. 400 nm, Em. 465 nm) and fluorescein (Ex. 400 nm, Em. 565 nm) fluorescence values were measured on a SpectraFluor Plus plate reader (Tecan, Durham, N.C.). The emission ratio (coumarin/fluorescein) was determined and used to calculate the percent phosphorylation for each well. Wells containing substrate but no kinase and wells containing a phosphopeptide control were used to set 0% and 100% phosphorylation values, respectively. Typically 20-40% of the substrate was phosphorylated in wells without inhibitor. Dose-response curves of relative Aurora A activity vs. inhibitor concentration were plotted with Grafit (Erithacus Software, Horley, Surrey, UK) and used to calculate IC50 values.

For experiment [2], the system named is HCT 116 Cells. Nature of the experiment: Aurora kinase whole cell cytotoxicity assay: Sulforhodamine B. Format: cell-based. To be noted: Homo sapiens, HCT116, SRB staining, 96 hours incubation. How it is done: Human tumour-derived cell lines, HCT116 or MCF7 (ATCC) were plated in a 96 well plate in DMEM containing 10% fetal bovine serum and 2 mM L-glutamine at a density of 500 HCT116 cells or 1,000 MCF7 cells per well and incubated at 37° C., 5% CO2, for 24 hours prior to the addition of experimental compounds. Compounds were added using the dilution series indicated to duplicate plates and the cells were incubated in media plus compound for 96 hours. An additional plate was fixed in 10% TCA at the time of the addition of compound to provide a measurement of the cell population at time zero, the time of drug addition. Following the 96 hour incubation, cells were fixed in situ by gently aspirating off the culture media and then adding 50 ul of ice cold 10% TCA per well and incubation at 4° C. for 60 minutes. The plates were washed with tap water five times and allowed to air dry for 5 minute. 50 ul of a 0.4% (w/v) Sulforhodamine B solution in 1% (v/v) acetic acid was added per well and the cells were incubated for 30 minutes at room temperature. Following staining, plates were washed four times with 1% acetic acid to remove any unbound dye and then allowed to air dry for 5 minutes. The stain was solubilized with 100 ul of 10 mM Tris pH 10.5 per well and placed on an orbital rotator for 5 minutes. The absorbance was read at 570 nm. Percentage growth was calculated using the absorbance readings from the time zero plate (Tz) and the dilution series plate […] which included a column of cells grown in media without compound as a control (C) using the formulas: [(Ti−Tz)/(C−Tz)]×100 for concentrations for which Ti>/=Tz [(Ti−Tz)/Tz]×100 for concentrations for which Ti<Tz.
Three dose response parameters were calculated for each experimental agent. Growth inhibition of 50% (GI50) was calculated from [(Ti−Tz)/(C−Tz)]×100=50, which was the drug concentration resulting in a 50% reduction in the net protein increase (as measured by SRB staining) in control cells during the drug incubation. The drug concentration resulting in total growth inhibition (TGI) was calculated from Ti=Tz. The LC50 (concentration of drug resulting in a 50% reduction in the measured protein at the end of the drug treatment as compared to that at the beginning) indicating a net loss of cells following treatment ws calculated from [(Ti−Tz)/Tz]×100=−50. Values are calculated for each of these three parameters if the level of activity was reached; however, if the effect was not reached or was exceeded, the value for that parameter is expressed as greater or less than the maximum or minimum concentration tested.
On the technique in general: The SRB assay estimates cell density from bound dye.

Take `Cc1cc(Nc2nc(Sc3ccc(NC(=O)C4CC4)cc3)nc(C(=O)OC3CCN(C)CC3)c2N)n[nH]1` [Compound 47, 1-Methylpiperidin-4-yl 2-(4-cyclopropanecarboxamidophenylsulfanyl)-5-amino-6-(5-methylpyrazol-3-ylamino)-4-pyrimidinecarboxylate]: the IC50 – broadly, the midpoint of a concentration-inhibition curve – in experiment [1] was under 100 nM. In experiment [2], the GI50 (as a rule, the concentration giving 50% growth inhibition) is 100 to 1000 nM.

Consider `Cc1cc(Nc2nc(Sc3ccc(NC(=O)C4CC4)cc3)nc(C(=O)OCCN3CCCCC3)c2N)n[nH]1` [Compound 48, 2-Piperidin-1-ylethyl 2-(4-cyclopropanecarboxamidophenylsulfanyl)-5-amino-6-(5-methylpyrazol-3-ylamino)-4-pyrimidinecarboxylate], for which the IC50 in experiment [1] is under 100 nM. In experiment [2], this compound showed a GI50 of 1000 to 10000 nM.

With `Cc1cc(Nc2nc(Sc3ccc(NC(=O)C4CC4)cc3)nc(C(=O)OC(C)C)c2N)n[nH]1` [Compound 49, Isopropyl 2-(4-cyclopropanecarboxamidophenylsulfanyl)-5-amino-6-(5-methylpyrazol-3-ylamino)-4-pyrimidinecarboxylate], the IC50 in experiment [1] is under 100 nM. The same compound showed a GI50 in experiment [2] of 100 to 1000 nM.

With `Cc1cc(Nc2nc(Sc3ccc(NC(=O)C4CC4)cc3)nc(C(=O)OCCO)c2N)n[nH]1` [Compound 50, 2-Hydroxyethyl 2-(4-cyclopropanecarboxamidophenylsulfanyl)-5-amino-6-(5-methylpyrazol-3-ylamino)-4-pyrimidinecarboxylate], the IC50 in experiment [1] is under 100 nM. Besides, in experiment [2], the GI50 lay within 1000 to 10000 nM.

With `Cc1cc(Nc2nc(Sc3ccc(NC(=O)C4CC4)cc3)nc(C(=O)Nc3ccncc3)c2N)n[nH]1` [Compound 51, N-Pyridin-4-yl 2-(4-cyclopropanecarboxamidophenylsulfanyl)-5-amino-6-(5-methylpyrazol-3-ylamino)-4-pyrimidinecarboxamide], in experiment [1], the IC50 is under 100 nM. Besides, the GI50 in experiment [2] is 1000 to 10000 nM.

As to `Cc1cc(Nc2nc(Sc3ccc(NC(=O)C4CC4)cc3)nc(C(=O)N3CCCCC3)c2N)n[nH]1` [Compound 53, Piperidin-1-yl 2-(4-cyclopropanecarboxamidophenylsulfanyl)-5-amino-6-(5-methylpyrazol-3-ylamino)-4-pyrimidinecarboxamide], the IC50 in experiment [1] was under 100 nM. The GI50 in experiment [2] lay within 100 to 1000 nM.

As for `Cc1cc(Nc2nc(Sc3ccc(NC(=O)C4CC4)cc3)nc(C(=O)NCC3CCCO3)c2N)n[nH]1` (stereo not shown) [Compound 54, N-(Tetrahydrofuran-2-ylmethyl) 2-(4-cyclopropanecarboxamidophenylsulfanyl)-5-amino-6-(5-methylpyrazol-3-ylamino)-4-pyrimidinecarboxamide], in experiment [1], the IC50 is under 100 nM. The compound further displayed a concentration for 50% growth inhibition (GI50) in experiment [2] of 100 to 1000 nM.

Turning to `COCCCNC(=O)c1nc(Sc2ccc(NC(=O)C3CC3)cc2)nc(Nc2cc(C)[nH]n2)c1N` [Compound 55, N-(3-Methoxypropyl) 2-(4-cyclopropanecarboxamidophenylsulfanyl)-5-amino-6-(5-methylpyrazol-3-ylamino)-4-pyrimidinecarboxamide], the IC50 in experiment [1] is under 100 nM. The same compound came in with a GI50 in experiment [2] of 100 to 1000 nM.

Regarding `CSCCNC(=O)c1nc(Sc2ccc(NC(=O)C3CC3)cc2)nc(Nc2cc(C)[nH]n2)c1N` [Compound 56, N-(2-Methylthioethyl) 2-(4-cyclopropanecarboxamidophenylsulfanyl)-5-amino-6-(5-methylpyrazol-3-ylamino)-4-pyrimidinecarboxamide], the IC50 in experiment [1] was under 100 nM. Besides, the GI50 in experiment [2] was in the range of 100 to 1000 nM.

In the case of `Cc1cc(Nc2nc(Sc3ccc(NC(=O)C4CC4)cc3)nc(C(=O)NC(C)(C)C)c2N)n[nH]1` [Compound 57, N-(tert-Butyl) 2-(4-cyclopropanecarboxamidophenylsulfanyl)-5-amino-6-(5-methylpyrazol-3-ylamino)-4-pyrimidinecarboxamide], the half-inhibitory concentration (IC50) in experiment [1] lay within 100 to 1000 nM. For the same compound, in experiment [2], the GI50 is 1000 to 10000 nM.

`Cc1cc(Nc2nc(Sc3ccc(NC(=O)C4CC4)cc3)nc(C(=O)NCc3ccco3)c2N)n[nH]1` [Compound 58, N-(2-Furylmethyl) 2-(4-cyclopropanecarboxamidophenylsulfanyl)-5-amino-6-(5-methylpyrazol-3-ylamino)-4-pyrimidinecarboxamide]: the IC50 in experiment [1] was under 100 nM. Further, the GI50 in experiment [2] fell in the range of 1000 to 10000 nM.

In the case of `Cc1cc(Nc2nc(Sc3ccc(NC(=O)C4CC4)cc3)nc(C(=O)NCc3cccs3)c2N)n[nH]1` [Compound 59, N-(2-Thien-2-ylmethyl) 2-(4-cyclopropanecarboxamidophenylsulfanyl)-5-amino-6-(5-methylpyrazol-3-ylamino)-4-pyrimidinecarboxamide], in experiment [1], the IC50 was under 100 nM. The same compound returned a 50% growth inhibitory concentration (GI50) in experiment [2] of 1000 to 10000 nM.

With `COCC(C)NC(=O)c1nc(Sc2ccc(NC(=O)C3CC3)cc2)nc(Nc2cc(C)[nH]n2)c1N` (stereo not shown) [Compound 61, N-(2-Methoxy-1-methylethyl) 2-(4-cyclopropanecarboxamidophenylsulfanyl)-5-amino-6-(5-methylpyrazol-3-ylamino)-4-pyrimidinecarboxamide], in experiment [1], the IC50 was under 100 nM. Moreover, the GI50 in experiment [2] lay in the range of 100 to 1000 nM.

For `Cc1cc(Nc2nc(Sc3ccc(NC(=O)C4CC4)cc3)nc(C(=O)NC3CCCCC3)c2N)n[nH]1` [Compound 62, N-Cyclohexyl 2-(4-cyclopropanecarboxamidophenylsulfanyl)-5-amino-6-(5-methylpyrazol-3-ylamino)-4-pyrimidinecarboxamide], the IC50 in experiment [1] lay in the range of 100 to 1000 nM. For the same compound, the GI50 in experiment [2] is 1000 to 10000 nM.

Consider `Cc1cc(Nc2nc(Sc3ccc(NC(=O)C4CC4)cc3)nc(C(=O)NC3CCOCC3)c2N)n[nH]1` [Compound 63, N-Tetrahydro-2H-pyran-4-yl 2-(4-cyclopropanecarboxamidophenylsulfanyl)-5-amino-6-(5-methylpyrazol-3-ylamino)-4-pyrimidinecarboxamide], for which the IC50 in experiment [1] is under 100 nM. In addition, in experiment [2], the GI50 was in the range of 100 to 1000 nM.

On to `Cc1cc(Nc2nc(Sc3ccc(NC(=O)C4CC4)cc3)nc(C(=O)NC3CCN(C)CC3)c2N)n[nH]1` [Compound 64, N-(1-Methylpiperidin-4-yl) 2-(4-cyclopropanecarboxamidophenylsulfanyl)-5-amino-6-(5-methylpyrazol-3-ylamino)-4-pyrimidinecarboxamide], for which the IC50 in experiment [1] is under 100 nM. For the same compound, the GI50 in experiment [2] was in the range of 100 to 1000 nM.

As for `Cc1cc(Nc2nc(Sc3ccc(NC(=O)C4CC4)cc3)nc(C(=O)NCC(F)(F)F)c2N)n[nH]1` [Compound 65, N-(2,2,2-Trifluoroethyl) 2-(4-cyclopropanecarboxamidophenylsulfanyl)-5-amino-6-(5-methylpyrazol-3-ylamino)-4-pyrimidinecarboxamide], the IC50 in experiment [1] is under 100 nM. The compound further registered a GI50 in experiment [2] of 100 to 1000 nM.

The values are drawn from patent US8153630B2, “Kinase inhibitors” (Miikana Therapeutics, Inc., priority 2004, dated 2012).
